The text below walks through data of patent publication US20040214760A1, “Inhibition pf protein-phosphatases for the treatment of heart failure” (priority 2001, published 2004).

One test has as its system PP1. Particulars: heat and acid stable proteins of skeletal muscle extract (Cohen et al., 1998); cited from earlier work.
For test [1], the target named is 32P-labelled phosphorylase a.

As to inhibitor-1, the “inhibition of phosphatase (PP1) activity, dependence on phosphorylation state” value in the test with PP1 was “inhibits phosphatase activity only when it has been phosphorylated by cAMP-dependent protein kinase”.

As to “purified catalytic subunit of PP1 from rabbit skeletal muscle (enzyme)”, the 32P released from 32P-labelled phosphorylase a in test [1] was determined as 30%.
